Data published in patent publication US9568466B2, “In vitro assay for predicting renal proximal tubular cell toxicity” (priority 2012, dated 2017).

Test system: renal proximal tubule
Experiment: not given
Settings: in vivo; cited from earlier work

For `O=c1[nH]cc(F)c(=O)[nH]1` [Compound 7, 5-Fluorouracil], which “nephrotoxicity in humans / direct damage of the renal proximal tubule” value (shortened to “nephrotoxicity in humans / direct damage”) is on record?
Its value is “nephrotoxic in humans and damage directly the renal proximal tubule”.

For `[Cl-].[Li+]` [Compound 28, Lithium chloride], which “nephrotoxicity in humans / direct damage” value is on record?
The value was “nephrotoxic in humans, but do not damage directly the renal proximal tubule”.

With `N[C@@H](Cc1cc(I)c(Oc2ccc(O)c(I)c2)c(I)c1)C(=O)O` [Compound 39, Triiodothyronine] as the molecule, how does the “nephrotoxicity in humans / direct damage” value read?
Its value is “non-nephrotoxic in humans”.

For `[Cl][Au]` [Compound 16, Gold(I) chloride], which “nephrotoxicity in humans / direct damage” value is on record?
Its value is “nephrotoxic in humans and damage directly the renal proximal tubule”.

For `CC(C)[C@H](N)C(=O)OCCOCn1cnc2c(=O)[nH]c(N)nc21` [Compound 31, Valacyclovir], which “nephrotoxicity in humans / direct damage” value is on record?
The value was “nephrotoxic in humans, but do not damage directly the renal proximal tubule”.

Which “nephrotoxicity in humans / direct damage” value does the source give for Gentamicin here?
Its value is “nephrotoxic in humans and damage directly the renal proximal tubule”.

Which “nephrotoxicity in humans / direct damage” value does the source give for `C=CC[C@@H]1/C=C(\C)C[C@H](C)C[C@H](OC)[C@H]2O[C@@](O)(C(=O)C(=O)N3CCCC[C@H]3C(=O)O[C@H](/C(C)=C/[C@@H]3CC[C@@H](O)[C@H](OC)C3)[C@H](C)[C@@H](O)CC1=O)[C@H](C)C[C@@H]2OC` [Compound 19, Tacrolimus] here?
The value was “nephrotoxic in humans and damage directly the renal proximal tubule”.

With `C[C@@H]1C[C@H]2[C@@H]3CCC4=CC(=O)C=C[C@]4(C)[C@@]3(F)[C@@H](O)C[C@]2(C)[C@@]1(O)C(=O)CO` [Compound 36, Dexamethasone] as the molecule, how does the “nephrotoxicity in humans / direct damage” value read?
The value was “non-nephrotoxic in humans”.

For `CO[C@H]1/C=C/O[C@@]2(C)Oc3c(C)c(O)c4c(O)c(c(/C=N/N5CCN(C)CC5)c(O)c4c3C2=O)NC(=O)/C(C)=C\C=C\[C@H](C)[C@H](O)[C@@H](C)[C@@H](O)[C@@H](C)[C@H](OC(C)=O)[C@@H]1C` [Compound 3, Rifampicin], which “nephrotoxicity in humans / direct damage” value is on record?
The value was “nephrotoxic in humans and damage directly the renal proximal tubule”.

With `CC1=C2C(=CO[C@H](C)[C@H]2C)C(O)=C(C(=O)O)C1=O` [Compound 21, Citrinin] as the molecule, how does the “nephrotoxicity in humans / direct damage” value read?
Its value is “nephrotoxic in humans and damage directly the renal proximal tubule”.

For `O=P1(NCCCl)OCCCN1CCCl` (stereo not shown) [Compound 9, Ifosfamide], which “nephrotoxicity in humans / direct damage” value is on record?
Its value is “nephrotoxic in humans and damage directly the renal proximal tubule”.

With `[Ge+4].[O-2].[O-2]` [Compound 15, Germanium(IV) oxide] as the molecule, how does the “nephrotoxicity in humans / direct damage” value read?
Its value is “nephrotoxic in humans and damage directly the renal proximal tubule”.

For `C[n+]1ccc(-c2cc[n+](C)cc2)cc1` [Compound 10, Paraquat], which “nephrotoxicity in humans / direct damage” value is on record?
The value was “nephrotoxic in humans and damage directly the renal proximal tubule”.

Which “nephrotoxicity in humans / direct damage” value does the source give for `N[C@@H](Cc1ccc(O)c(O)c1)C(=O)O` [Compound 38, Levodopa (DOPA)] here?
The value was “non-nephrotoxic in humans”.

For `OCCO` [Compound 30, Ethylene glycol], which “nephrotoxicity in humans / direct damage” value is on record?
The value was “nephrotoxic in humans, but do not damage directly the renal proximal tubule”.

For `NCC(=O)O` [Compound 35, Glycine], which “nephrotoxicity in humans / direct damage” value is on record?
Its value is “non-nephrotoxic in humans”.

For `NC[C@H]1O[C@H](O[C@H]2[C@H](O)[C@@H](O[C@H]3O[C@H](CO)[C@@H](O)[C@H](N)[C@H]3O)[C@H](N)C[C@@H]2N)[C@H](N)C[C@@H]1O` [Compound 2, Tobramycin], which “nephrotoxicity in humans / direct damage” value is on record?
Its value is “nephrotoxic in humans and damage directly the renal proximal tubule”.

For `CCC[C@@H]1C[C@@H](C(=O)N[C@@H]([C@H]2O[C@H](SC)[C@H](O)[C@@H](O)[C@H]2O)[C@@H](C)O)N(C)C1` [Compound 32, Lincomycin], which “nephrotoxicity in humans / direct damage” value is on record?
Its value is “nephrotoxic in humans, but do not damage directly the renal proximal tubule”.

For `COc1ccc(C[C@H](N)C(=O)N[C@H]2[C@@H](O)[C@H](n3cnc4c(N(C)C)ncnc43)O[C@@H]2CO)cc1` [Compound 5, Puromycin], which “nephrotoxicity in humans / direct damage” value is on record?
Its value is “nephrotoxic in humans and damage directly the renal proximal tubule”.

Which “nephrotoxicity in humans / direct damage” value does the source give for `CC(=O)OCC1=C(C(=O)O)N2C(=O)[C@@H](NC(=O)CCC[C@@H](N)C(=O)O)[C@H]2SC1` [Compound 6, Cephalosporin C] here?
Its value is “nephrotoxic in humans and damage directly the renal proximal tubule”.

With `CCOc1ccc(NC(C)=O)cc1` [Compound 24, Phenacetin] as the molecule, how does the “nephrotoxicity in humans / direct damage” value read?
The value was “nephrotoxic in humans, but do not damage directly the renal proximal tubule”.

With `COc1ccc2[nH]cc(CCNC(C)=O)c2c1` [Compound 37, Melatonin] as the molecule, how does the “nephrotoxicity in humans / direct damage” value read?
The value was “non-nephrotoxic in humans”.

Which “nephrotoxicity in humans / direct damage” value does the source give for `Cl[C@H]1[C@H](Cl)[C@@H](Cl)[C@@H](Cl)[C@H](Cl)[C@H]1Cl` [Compound 29, Lindane] here?
The value was “nephrotoxic in humans, but do not damage directly the renal proximal tubule”.

Test system: human primary renal proximal tubular cells (HPTC)
Experiment: HPTC exposed to test compound, nuclear staining and F-actin detection, morphology and cell numbers
Settings: HPTC isolated from fresh human kidney samples; 0.2 mg/ml; 16 hours

With Gentamicin as the molecule, how does the “cell numbers (number of cell nuclei)” value read?
The value was “decrease in cell numbers”.

And the “morphological changes (F-actin)” value?
The value was “morphological changes”.
